# According to patent US20050123560A1, “High purity and water dispersible extract and formulations of larrea tridentata leaf resin, and methods of making and using the same” (priority 2003, published 2005):
# Assays:
# [1] = Reduction of oxidized NDGA in methanolic solution by reducing agents, followed by chromatography; settings: reducing agent at 100 mg/ml in methanolic solution of oxidized NDGA
# [2] = animal studies, ingestion; cited from earlier work
structure (smiles),measurement,setting,value
O=S([O-])S(=O)[O-].[Na+].[Na+] [sodium hydrosulfite],NDGA quinone remaining by chromatography after reduction,[1],still detectable
"CC(Cc1ccc(O)c(O)c1)C(C)Cc1ccc(O)c(O)c1 (stereo not drawn) [NDGA, nordihydroguaiaretic acid]",kidney toxicity,[2],evidence of kidney toxicity
O=C1O[C@H]([C@@H](O)CO)C(O)=C1O [ascorbic acid],time to reduce oxidized NDGA,[1],approximately 1 minute
